{"source": "PubChem BioAssay (NCI)", "assay_in_all_cases": "growth of human tumour cells (NCI), 48 h", "key": {"LXFL 529 NSCLC": {"test_system": "LXFL 529 NSCLC"}, "M14 melanoma": {"test_system": "M14 melanoma"}, "SF-539 CNS": {"test_system": "SF-539 CNS"}, "SF-295 CNS": {"test_system": "SF-295 CNS"}, "EKVX NSCLC": {"test_system": "EKVX NSCLC"}, "NCI-H23 lung": {"test_system": "NCI-H23 lung"}, "HCC-2998 colon": {"test_system": "HCC-2998 colon"}, "KM12 colon": {"test_system": "KM12 colon"}, "UACC-62 melanoma": {"test_system": "UACC-62 melanoma"}, "U251 CNS": {"test_system": "U251 CNS"}, "SW-620 colon": {"test_system": "SW-620 colon"}, "M19-MEL melanoma": {"test_system": "M19-MEL melanoma"}, "SK-MEL-2 melanoma": {"test_system": "SK-MEL-2 melanoma"}, "SNB-78 CNS": {"test_system": "SNB-78 CNS"}, "RPMI-8226 leukemia": {"test_system": "RPMI-8226 leukemia"}, "SNB-75 CNS": {"test_system": "SNB-75 CNS"}, "OVCAR-3 ovarian": {"test_system": "OVCAR-3 ovarian"}, "SF-268 CNS": {"test_system": "SF-268 CNS"}, "K-562 leukemia": {"test_system": "K-562 leukemia"}, "KM20L2 colon": {"test_system": "KM20L2 colon"}, "SN12C renal": {"test_system": "SN12C renal"}, "MOLT-4 leukemia": {"test_system": "MOLT-4 leukemia"}, "SK-MEL-5 melanoma": {"test_system": "SK-MEL-5 melanoma"}, "DMS 114 small cell lung": {"test_system": "DMS 114 small cell lung"}, "NCI-H460 lung": {"test_system": "NCI-H460 lung"}, "HT29 colon": {"test_system": "HT29 colon"}, "NCI-H522 lung": {"test_system": "NCI-H522 lung"}, "COLO 205 colon": {"test_system": "COLO 205 colon"}, "A498 renal": {"test_system": "A498 renal"}, "HCT-116 colon": {"test_system": "HCT-116 colon"}, "MALME-3M melanoma": {"test_system": "MALME-3M melanoma"}, "SNB-19 CNS": {"test_system": "SNB-19 CNS"}, "786-0 renal": {"test_system": "786-0 renal"}, "OVCAR-5 ovarian": {"test_system": "OVCAR-5 ovarian"}, "DLD-1 colon": {"test_system": "DLD-1 colon"}, "SK-OV-3 ovarian": {"test_system": "SK-OV-3 ovarian"}, "CCRF-CEM leukemia": {"test_system": "CCRF-CEM leukemia"}, "UACC-257 melanoma": {"test_system": "UACC-257 melanoma"}, "XF 498 CNS": {"test_system": "XF 498 CNS"}, "HOP-62 NSCLC": {"test_system": "HOP-62 NSCLC"}, "DMS 273 small cell lung": {"test_system": "DMS 273 small cell lung"}, "CAKI-1 renal": {"test_system": "CAKI-1 renal"}, "IGROV1 ovarian": {"test_system": "IGROV1 ovarian"}, "A549 NSCLC": {"test_system": "A549 NSCLC"}, "OVCAR-8 ovarian": {"test_system": "OVCAR-8 ovarian"}, "ACHN renal": {"test_system": "ACHN renal"}, "TK-10 renal": {"test_system": "TK-10 renal"}, "HL-60(TB) leukemia": {"test_system": "HL-60(TB) leukemia"}, "NCI-H226 lung": {"test_system": "NCI-H226 lung"}, "UO-31 renal": {"test_system": "UO-31 renal"}, "SK-MEL-28 melanoma": {"test_system": "SK-MEL-28 melanoma"}, "RXF 393 renal": {"test_system": "RXF 393 renal"}, "LOX IMVI melanoma": {"test_system": "LOX IMVI melanoma"}, "HCT-15 colon": {"test_system": "HCT-15 colon"}}, "note": "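Method: 48-hour compound exposure of cells in 96-well plates, five concentrations, linear interpolation of endpoints. The concentration for full growth arrest is given as TGI.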", "data": [{"smiles": "CC(C)(C)N=C1CC(C)(C)c2ccccc2C(=Nc2ccccc2)S1", "values": [{"measurement": "TGI", "setting": "LXFL 529 NSCLC", "value": "> 100", "unit": "µM"}, {"measurement": "TGI", "setting": "M14 melanoma", "value": "> 100", "unit": "µM"}, {"measurement": "TGI", "setting": "SF-539 CNS", "value": "> 100", "unit": "µM"}, {"measurement": "TGI", "setting": "SF-295 CNS", "value": "> 100", "unit": "µM"}, {"measurement": "TGI", "setting": "EKVX NSCLC", "value": "> 100", "unit": "µM"}, {"measurement": "TGI", "setting": "NCI-H23 lung", "value": 98.6, "unit": "µM"}, {"measurement": "TGI", "setting": "HCC-2998 colon", "value": "> 100", "unit": "µM"}, {"measurement": "TGI", "setting": "KM12 colon", "value": "> 100", "unit": "µM"}, {"measurement": "TGI", "setting": "UACC-62 melanoma", "value": "> 100", "unit": "µM"}, {"measurement": "TGI", "setting": "U251 CNS", "value": "> 100", "unit": "µM"}, {"measurement": "TGI", "setting": "SW-620 colon", "value": "> 100", "unit": "µM"}, {"measurement": "TGI", "setting": "M19-MEL melanoma", "value": "> 100", "unit": "µM"}, {"measurement": "TGI", "setting": "SK-MEL-2 melanoma", "value": 99, "unit": "µM"}, {"measurement": "TGI", "setting": "SNB-78 CNS", "value": "> 100", "unit": "µM"}, {"measurement": "TGI", "setting": "RPMI-8226 leukemia", "value": 41.5, "unit": "µM"}, {"measurement": "TGI", "setting": "SNB-75 CNS", "value": "> 100", "unit": "µM"}, {"measurement": "TGI", "setting": "OVCAR-3 ovarian", "value": "> 100", "unit": "µM"}, {"measurement": "TGI", "setting": "SF-268 CNS", "value": "> 100", "unit": "µM"}, {"measurement": "TGI", "setting": "K-562 leukemia", "value": "> 100", "unit": "µM"}, {"measurement": "TGI", "setting": "KM20L2 colon", "value": "> 100", "unit": "µM"}, {"measurement": "TGI", "setting": "SN12C renal", "value": "> 100", "unit": "µM"}, {"measurement": "TGI", "setting": "MOLT-4 leukemia", "value": 69.2, "unit": "µM"}, {"measurement": "TGI", "setting": "SK-MEL-5 melanoma", "value": 59.2, "unit": "µM"}, {"measurement": "TGI", "setting": "DMS 114 small cell lung", "value": 83.4, "unit": "µM"}, {"measurement": "TGI", "setting": "NCI-H460 lung", "value": "> 100", "unit": "µM"}, {"measurement": "TGI", "setting": "HT29 colon", "value": "> 100", "unit": "µM"}, {"measurement": "TGI", "setting": "NCI-H522 lung", "value": 46.7, "unit": "µM"}, {"measurement": "TGI", "setting": "COLO 205 colon", "value": 49.6, "unit": "µM"}, {"measurement": "TGI", "setting": "A498 renal", "value": "> 100", "unit": "µM"}, {"measurement": "TGI", "setting": "HCT-116 colon", "value": "> 100", "unit": "µM"}, {"measurement": "TGI", "setting": "MALME-3M melanoma", "value": 96.5, "unit": "µM"}, {"measurement": "TGI", "setting": "SNB-19 CNS", "value": "> 100", "unit": "µM"}, {"measurement": "TGI", "setting": "786-0 renal", "value": "> 100", "unit": "µM"}, {"measurement": "TGI", "setting": "OVCAR-5 ovarian", "value": "> 100", "unit": "µM"}, {"measurement": "TGI", "setting": "DLD-1 colon", "value": "> 100", "unit": "µM"}, {"measurement": "TGI", "setting": "SK-OV-3 ovarian", "value": "> 100", "unit": "µM"}, {"measurement": "TGI", "setting": "CCRF-CEM leukemia", "value": "> 100", "unit": "µM"}, {"measurement": "TGI", "setting": "UACC-257 melanoma", "value": "> 100", "unit": "µM"}, {"measurement": "TGI", "setting": "XF 498 CNS", "value": 45.5, "unit": "µM"}, {"measurement": "TGI", "setting": "HOP-62 NSCLC", "value": "> 100", "unit": "µM"}, {"measurement": "TGI", "setting": "DMS 273 small cell lung", "value": "> 100", "unit": "µM"}, {"measurement": "TGI", "setting": "CAKI-1 renal", "value": "> 100", "unit": "µM"}, {"measurement": "TGI", "setting": "IGROV1 ovarian", "value": "> 100", "unit": "µM"}, {"measurement": "TGI", "setting": "A549 NSCLC", "value": "> 100", "unit": "µM"}, {"measurement": "TGI", "setting": "OVCAR-8 ovarian", "value": "> 100", "unit": "µM"}, {"measurement": "TGI", "setting": "ACHN renal", "value": "> 100", "unit": "µM"}, {"measurement": "TGI", "setting": "TK-10 renal", "value": "> 100", "unit": "µM"}, {"measurement": "TGI", "setting": "HL-60(TB) leukemia", "value": 36, "unit": "µM"}, {"measurement": "TGI", "setting": "NCI-H226 lung", "value": "> 100", "unit": "µM"}, {"measurement": "TGI", "setting": "UO-31 renal", "value": "> 100", "unit": "µM"}, {"measurement": "TGI", "setting": "SK-MEL-28 melanoma", "value": "> 100", "unit": "µM"}, {"measurement": "TGI", "setting": "RXF 393 renal", "value": "> 100", "unit": "µM"}, {"measurement": "TGI", "setting": "LOX IMVI melanoma", "value": 40.1, "unit": "µM"}, {"measurement": "TGI", "setting": "HCT-15 colon", "value": "> 100", "unit": "µM"}]}]}
